Assay results reported in patent US20260001849A1, “NOVEL B0AT1 INHIBITOR” (MITSUBISHI TANABE PHARMA CORPORATION, priority 2023, published 2026).
Like-named read-outs stand apart in the source and are kept apart here.

Columns and labels:
[1] = target: T1, hERG channel (Homo sapiens, UniProt Q12809); assay: hERG channel inhibitory activity, whole-cell patch clamp (auto-patch clamp system); assay type: cell-based; details: read-out: hERG IC50
T1 construct: host or cells: CHO cells
Description: Evaluation of hERG (Human Ether-a-go-go Related Gene) Channel Inhibitory Activity
The hERG channel inhibitory activity of the compound of the present invention was measured using CHO cells (B′ SYS GmbH) forcibly expressing hERG channels involved in human rapidly active delayed rectifier potassium current (IKr) by the whole-cell patch clamp method using an auto-patch clamp system (SyncroPatch384PE).
Cell suspension, extracellular fluid, intracellular fluid, and measurement plate (NPC-384 plate) were placed in the auto-patch clamp system, and hERG current measurements were performed using the whole-cell patch clamp method. The voltage protocol was set to a holding potential of −80 mV, with a depolarizing pulse preceded by −90 mV (100 ms) and followed by −80 mV (100 ms).
The depolarizing pulse was […] (500 ms), and then the hERG peak current value obtained during the ramp phase was measured when the voltage was lowered to −80 mV over 100 ms. The protocol was applied at 5-second intervals for 5 minutes for each concentration.
SyncroPatch software (manufactured by Nanion) was used for data analysis. Four concentrations were applied incrementally for each test substance, and the average hERG Peak current value obtained from the last three stimuli of each applied concentration was used as the evaluation data. The IC50 value was calculated from the inhibition rate of the current at each concentration of each test substance relative to the pre-application value using Hill's equation (Hill equation) using the relevant software.
The same experiments were also performed using the example compounds described in WO 2023/145804 as comparative example compounds 1-4.

[2] = target: T2, Human BOAT1 (Homo sapiens, UniProt Q695T7); assay: hBOAT1 inhibitory test (phenylalanine uptake); assay type: cell-based; details: Human BOAT1 stable expression CHO cells, phenylalanine 0.25 mM, read-out: hB0AT1 IC50
T2 construct: expressed in transfected cells
T2 sequence (Q695T7 1-634): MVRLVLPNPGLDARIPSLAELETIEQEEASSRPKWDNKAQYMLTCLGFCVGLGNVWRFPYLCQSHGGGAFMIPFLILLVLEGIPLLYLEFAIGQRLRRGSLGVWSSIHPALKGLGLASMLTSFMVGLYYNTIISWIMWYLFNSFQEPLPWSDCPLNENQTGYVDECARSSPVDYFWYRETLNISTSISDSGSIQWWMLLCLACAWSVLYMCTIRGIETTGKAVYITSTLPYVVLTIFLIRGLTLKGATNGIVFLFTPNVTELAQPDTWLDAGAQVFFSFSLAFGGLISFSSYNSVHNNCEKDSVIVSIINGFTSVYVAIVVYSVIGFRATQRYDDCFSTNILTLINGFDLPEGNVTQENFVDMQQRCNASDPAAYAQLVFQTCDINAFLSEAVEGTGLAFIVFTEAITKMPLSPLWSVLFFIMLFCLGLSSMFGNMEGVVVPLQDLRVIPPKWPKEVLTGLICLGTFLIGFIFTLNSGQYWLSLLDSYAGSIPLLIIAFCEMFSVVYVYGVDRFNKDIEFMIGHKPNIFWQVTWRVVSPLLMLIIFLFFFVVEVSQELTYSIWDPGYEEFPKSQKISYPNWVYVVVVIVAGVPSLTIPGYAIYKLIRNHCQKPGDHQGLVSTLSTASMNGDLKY
Summary of the method: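 Human BOAT1 stably expressed in CHO cells (75000 cells/well) in HEPES-buffered NaCl/KCl/CaCl2/MgCl2 buffer with 0.01% BSA, compound at 0.5% DMSO, preincubated ≥30 min at ordinary temperature. Uptake of L-phenylalanine plus [3H]-L-phenylalanine (0.25 mM final) read by scintillation proximity; 100–200 min values analysed, non-specific uptake defined with […] reference inhibitor.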

[3] = [3H]-L-phenylalanine uptake, radioactivity after 100 to 200 min

T1 sequence (Q12809 whole entry): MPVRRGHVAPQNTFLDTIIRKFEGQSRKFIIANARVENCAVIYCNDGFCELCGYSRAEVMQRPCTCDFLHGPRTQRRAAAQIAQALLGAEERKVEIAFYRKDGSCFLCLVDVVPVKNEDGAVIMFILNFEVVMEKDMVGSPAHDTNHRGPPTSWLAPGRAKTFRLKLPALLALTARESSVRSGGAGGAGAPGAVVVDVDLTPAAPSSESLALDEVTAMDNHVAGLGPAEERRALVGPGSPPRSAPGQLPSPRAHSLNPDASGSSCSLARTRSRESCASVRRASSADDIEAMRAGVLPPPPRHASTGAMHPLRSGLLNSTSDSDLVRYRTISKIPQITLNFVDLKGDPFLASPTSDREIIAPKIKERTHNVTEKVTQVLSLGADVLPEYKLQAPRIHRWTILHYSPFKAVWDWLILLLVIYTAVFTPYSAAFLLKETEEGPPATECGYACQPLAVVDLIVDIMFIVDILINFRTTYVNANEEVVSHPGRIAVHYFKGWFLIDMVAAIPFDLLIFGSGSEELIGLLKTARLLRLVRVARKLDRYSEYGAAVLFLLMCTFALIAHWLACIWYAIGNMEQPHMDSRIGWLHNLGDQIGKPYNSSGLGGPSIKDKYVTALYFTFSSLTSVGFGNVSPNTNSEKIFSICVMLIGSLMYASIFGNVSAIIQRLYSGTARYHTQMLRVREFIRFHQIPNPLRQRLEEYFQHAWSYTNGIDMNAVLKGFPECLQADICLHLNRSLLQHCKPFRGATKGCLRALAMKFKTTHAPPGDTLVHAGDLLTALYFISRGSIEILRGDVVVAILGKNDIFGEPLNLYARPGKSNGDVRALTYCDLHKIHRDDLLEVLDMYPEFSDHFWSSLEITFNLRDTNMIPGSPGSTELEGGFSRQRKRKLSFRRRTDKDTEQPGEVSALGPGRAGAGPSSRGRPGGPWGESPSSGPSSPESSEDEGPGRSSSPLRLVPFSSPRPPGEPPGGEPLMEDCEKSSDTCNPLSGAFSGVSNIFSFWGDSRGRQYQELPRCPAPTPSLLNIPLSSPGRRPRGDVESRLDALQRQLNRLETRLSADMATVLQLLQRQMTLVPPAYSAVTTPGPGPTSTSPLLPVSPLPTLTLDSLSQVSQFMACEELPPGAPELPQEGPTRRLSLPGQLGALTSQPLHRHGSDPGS

Row | SMILES | IC50 [1] | IC50 [2, 3] | IC50 ([2]; phenylalanine uptake)
1 | O=C(O)Cc1ccc2c(c1)CCN(C(=O)CNC(=O)/C=C/c1ccc(Br)cc1)C2 [I-184] | > 30 µM | 127 nM | 
2 | O=C(O)Cc1ccc2c(c1)CCN(C(=O)CNC(=O)/C=C/c1ccc(Cl)cc1)C2 [I-185] | > 30 µM | 168 nM | 
3 | O=C(O)Cc1ccc2c(c1)CCN(C(=O)CNC(=O)/C=C/c1ccc(Cl)cc1F)C2 [I-186] | > 30 µM | 76 nM | 
4 | O=C(O)Cc1ccc2c(c1)CCN(C(=O)CNC(=O)/C=C/c1ccc(C(F)(F)F)cc1F)C2 [I-187] | > 30 µM | 59 nM | 
5 | O=C(O)Cc1ccc2c(c1)CCN(C(=O)CNC(=O)/C=C/c1ccc(S(F)(F)(F)(F)F)cc1)C2 [I-190] | > 30 µM | 102 nM | 
6 | O=C(O)COc1ccc2c(c1)CCN(C(=O)CNC(=O)/C=C/c1ccc(C(F)(F)F)cc1)C2 [I-191] | > 30 µM | 104 nM | 
7 | O=C(O)COc1cccc2c1CCN2C(=O)CNC(=O)/C=C/c1ccc(C(F)(F)F)cc1 [I-194] | > 30 µM | 74 nM | 
8 | CC(C)(Oc1cc(F)c2c(c1)CCN(C(=O)CNC(=O)/C=C/c1ccc(C(F)(F)F)cc1)C2)C(=O)O [I-195] | > 30 µM | 186 nM | 
9 | C[C@@H]1CN(C(=O)CNC(=O)/C=C/c2ccc(C(F)(F)F)cc2F)[C@@H](C)CN1CCCC(=O)O [I-197] | > 30 µM | 2400 nM | 
10 | C[C@@H]1CN(C(=O)CNC(=O)/C=C/c2ccc(C(F)(F)F)cc2F)[C@H](C)CN1CCCC(=O)O [I-199] | > 30 µM | 370 nM | 
11 | O=C(O)Cc1nc2c(s1)CCN(C(=O)CNC(=O)/C=C/c1ccc(C(F)(F)F)cc1)C2 [I-201] | > 30 µM | 54 nM | 
12 | O=C(O)Cc1nc2c(s1)CN(C(=O)CNC(=O)/C=C/c1ccc(C(F)(F)F)cc1)CC2 [I-202] | > 30 µM | 149 nM | 
13 | O=C(O)CCCN1CCN(C(=O)CNC(=O)/C=C/c2ccc(C(F)(F)F)cc2)C(c2ccccc2)C1 (stereo not shown) [I-204] | > 30 µM | 246 nM | 
14 | O=C(O)Cc1cc(F)c2c(c1)CCN(C(=O)CNC(=O)/C=C/c1ccc(C(F)(F)F)cc1F)C2 [I-205] | > 30 µM | 99 nM | 
15 | O=C(O)CSc1nc2c(s1)CN(C(=O)CNC(=O)/C=C/c1ccc(C(F)(F)F)cc1F)CC2 [I-214] | > 30 µM | 91 nM | 
16 | O=C(O)CSc1nc2c(s1)CN(C(=O)CNC(=O)/C=C/c1ccc(C(F)(F)F)cc1)CC2 [I-215] | > 30 µM | 165 nM | 
17 | N#Cc1cc2c(cc1CC(=O)O)CCN(C(=O)CNC(=O)/C=C/c1ccc(I)cc1F)C2 [I-223] | 28.5 µM | 86 nM | 
18 | N#Cc1cc2c(cc1CC(=O)O)CCN(C(=O)CNC(=O)/C=C/c1ccc(C(F)(F)F)cc1F)C2 [I-224] | > 30 µM | 110 nM | 
19 | N#Cc1cc2c(cc1CC(=O)O)CCN(C(=O)CNC(=O)/C=C/c1ccc(C(F)(F)F)cc1F)C2 [I-225] | 26.2 µM | 295 nM | 
20 | O=C(O)Cc1cc2c(cc1Cl)CN(C(=O)CNC(=O)/C=C/c1ccc(C(F)(F)F)cc1)CC2 [I-226] | > 30 µM | 101 nM | 
21 | CC1CN(C(=O)CNC(=O)/C=C/c2ccc(C(F)(F)F)cc2F)CCN1CCCC(=O)O (stereo not shown) [I-231] | > 30 µM | 234 nM | 
22 | O=C(O)CCCN1CCN(C(=O)CNC(=O)/C=C/c2ccc(C(F)(F)F)cc2F)[C@@H](c2ccc(Br)cc2)C1 [I-232] | 19.3 µM | 30 nM | 
23 | O=C(O)CCCN1CCN(C(=O)CNC(=O)/C=C/c2ccc(C(F)(F)F)cc2F)C(c2ccccc2Cl)C1 (stereo not shown) [I-233] | > 30 µM | 609 nM | 
24 | O=C(O)CCCN1CCN(C(=O)CNC(=O)/C=C/c2ccc(C(F)(F)F)cc2F)C(c2ccc(F)cc2)C1 (stereo not shown) [I-237] | > 30 µM | 199 nM | 

Row | SMILES | IC50 [1] | IC50 [2, 3] | IC50 ([2]; phenylalanine uptake)
25 | O=C(O)CCCN1CCN(C(=O)CNC(=O)/C=C/c2ccc(C(F)(F)F)cc2F)C(c2cccc(Cl)c2)C1 (stereo not shown) [I-238] | > 30 µM | 97 nM | 
26 | O=C(O)CCCN1CCN(C(=O)CNC(=O)/C=C/c2ccc(C(F)(F)F)cc2F)C(c2cccc(F)c2)C1 (stereo not shown) [I-239] | > 30 µM | 302 nM | 
27 | O=C(O)CCCN1CCN(C(=O)CNC(=O)/C=C/c2ccc(C(F)(F)F)cc2F)C(c2ccccc2F)C1 (stereo not shown) [I-240] | > 30 µM | 197 nM | 
28 | O=C(O)CCN1CCN(C(=O)CNC(=O)/C=C/c2ccc(C(F)(F)F)cc2F)C(c2ccccc2)C1 (stereo not shown) [I-241] | > 30 µM | 161 nM | 
29 | O=C(O)CCCCN1CCN(C(=O)CNC(=O)/C=C/c2ccc(C(F)(F)F)cc2F)C(c2ccccc2)C1 (stereo not shown) [I-242] | > 30 µM | 158 nM | 
30 | O=C(O)CCCN1CCN(C(=O)CNC(=O)/C=C/c2ccc(C(F)(F)F)cc2F)[C@@H](C(F)(F)F)C1 [I-243] | > 30 µM | 3700 nM | 
31 | O=C(O)CCCN1CCN(C(=O)CNC(=O)/C=C/c2ccc(C(F)(F)F)cc2F)[C@H](C(F)(F)F)C1 [I-244] | > 30 µM | 613 nM | 
32 | O=C(/C=C/c1ccc(C(F)(F)F)cc1F)NCC(=O)N1CCN(C[C@H]2C[C@H](C(=O)O)C2)CC1c1ccc(Cl)cc1 (stereo partly shown) [I-248] | > 30 µM | 147 nM | 
33 | O=C(/C=C/c1ccc(C(F)(F)F)cc1F)NCC(=O)N1CCN(CC23CC(C(=O)O)(C2)C3)CC1c1ccc(Cl)cc1 (stereo not shown) [I-250] | > 30 µM | 506 nM | 
34 | O=C(/C=C/c1ccc(C(F)(F)F)cc1F)NCC(=O)N1CCCC(c2cccc(C(=O)O)c2)C1 (stereo not shown) [I-255] | > 30 µM |  | 766 nM
35 | O=C(O)CCCN1CCN(C(=O)CNC(=O)/C=C/c2ccc(C(F)(F)F)cc2F)C(c2ccc(Cl)c(F)c2)C1 (stereo not shown) [I-257] | 29.6 µM |  | 108 nM
36 | C[C@@H]1CN(C(=O)CNC(=O)/C=C/c2ccc(C(F)(F)F)cc2F)[C@@H](c2ccccc2)CN1CCCC(=O)O [I-261] | > 30 µM |  | 30 nM
37 | C[C@@H]1CN(C(=O)CNC(=O)/C=C/c2ccc(C(F)(F)F)cc2F)[C@@H](c2ccc(Cl)cc2)CN1CCCC(=O)O [I-337] | 15.5 µM |  | 31 nM
38 | C[C@@H]1CN(C(=O)CNC(=O)/C=C/c2ccc(C(F)(F)F)cc2F)[C@@H](c2ccc(F)cc2)CN1CCCC(=O)O [I-338] | > 30 µM |  | 54 nM
39 | C[C@@H]1CN(C(=O)CNC(=O)/C=C/c2ccc(C(F)(F)F)cc2F)[C@@H](c2cccc(F)c2)CN1CCCC(=O)O [I-340] | > 30 µM |  | 62 nM
40 | O=C(O)CCCN1C[C@H](c2ccccc2)N(C(=O)CNC(=O)/C=C/c2ccc(C(F)(F)F)cc2F)CC12CC2 [I-341] | > 30 µM |  | 1680 nM
41 | CC(C)[C@@H]1CN(C(=O)CNC(=O)/C=C/c2ccc(C(F)(F)F)cc2F)[C@@H](c2ccccc2)CN1CCCC(=O)O [I-342] | > 30 µM |  | 338 nM
42 | CC[C@@H]1CN(C(=O)CNC(=O)/C=C/c2ccc(C(F)(F)F)cc2F)[C@@H](c2ccccc2)CN1CCCC(=O)O [I-343] | > 30 µM |  | 91 nM
43 | C[C@@H]1CN(C(=O)CNC(=O)/C=C/c2ccc(C(F)(F)F)cc2F)[C@@H](c2ccc(F)c(F)c2)CN1CCC(=O)O [I-348] | > 30 µM |  | 45 nM
44 | C[C@@H]1CN(C(=O)CNC(=O)/C=C/c2ccc(C(F)(F)F)cc2F)[C@@H](c2ccc(F)c(F)c2)CN1CCCC(=O)O [I-349] | > 30 µM |  | 93 nM
45 | C[C@@H]1CN(C(=O)CNC(=O)/C=C/c2ccc(C(F)(F)F)cc2)[C@@H](c2ccc(F)c(F)c2)CN1CCCC(=O)O [I-350] | > 30 µM |  | 184 nM
46 | C[C@@H]1[C@H](c2ccccc2)N(C(=O)CNC(=O)/C=C/c2ccc(C(F)(F)F)cc2F)CCN1CCCC(=O)O [I-353] | > 30 µM |  | 400 nM
47 | Cc1ccc([C@H]2CN(CCCC(=O)O)[C@H](C)CN2C(=O)CNC(=O)/C=C/c2ccc(C(F)(F)F)cc2F)cc1 [I-383] | 15.2 µM | 64 nM | 
